Experimental data published in PMC7217186 (The Febs Journal, 2019).

Molecular target: T1, TKS (tetraketide synthase) (Cannabis sativa, UniProt B1Q2B6)
T1 construct: gene OLS; codon-optimised gene in pETM11, N-terminal TEV-cleavable His6 tag, cut from wild type after purification; E. coli BL21(DE3); dimer (two dimers in asymmetric unit); Cys157 oxidised to sulfinic acid in crystal
Assay: LC-MS of products (olivetol, PDAL, HTAL)
Type: biochemical
Conditions: 10 μM hexanoyl-CoA, 30 μM malonyl-CoA, 10 μM enzyme, 25 mM Tris pH 8, 150 mM NaCl, 5% glycerol, 25 °C, overnight

T1 sequence (B1Q2B6 2-385): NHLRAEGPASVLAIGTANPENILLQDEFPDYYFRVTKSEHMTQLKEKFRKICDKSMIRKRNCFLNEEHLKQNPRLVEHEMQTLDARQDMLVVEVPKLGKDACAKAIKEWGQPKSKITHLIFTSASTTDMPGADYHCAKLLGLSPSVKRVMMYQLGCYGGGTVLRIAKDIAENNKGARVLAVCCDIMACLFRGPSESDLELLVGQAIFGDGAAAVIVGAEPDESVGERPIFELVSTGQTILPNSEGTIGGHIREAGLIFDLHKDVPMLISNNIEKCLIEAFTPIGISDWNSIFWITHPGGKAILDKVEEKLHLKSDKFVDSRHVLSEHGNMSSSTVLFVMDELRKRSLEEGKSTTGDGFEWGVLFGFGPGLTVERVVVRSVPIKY

With CCCCCC(=O)SCCNC(=O)CCNC(=O)[C@H](O)C(C)(C)COP(=O)(O)OP(=O)(O)OC[C@H]1O[C@@H](n2cnc3c(N)ncnc32)[C@H](O)[C@@H]1OP(=O)(O)O [hexanoyl-CoA] the “LC-MS of products (olivetol, PDAL, HTAL)” value was “A major product generated by TKS with malonyl‐CoA and hexanoyl‐CoA was identified as olivetol”.

CC(C)(COP(=O)(O)OP(=O)(O)OC[C@H]1O[C@@H](n2cnc3c(N)ncnc32)[C@H](O)[C@@H]1OP(=O)(O)O)[C@@H](O)C(=O)NCCC(=O)NCCSC(=O)CC(=O)O [malonyl-CoA] was tested, and the “LC-MS of products (olivetol, PDAL, HTAL)” value was “A major product generated by TKS with malonyl‐CoA and hexanoyl‐CoA was identified as olivetol”.
